# Test results: ChEMBL document CHEMBL1201861, “Genomics of Drug Sensitity in Cancer screening data, Wellcome Trust Sanger Institute”
# Tests used:
# Experiment in all cases: cells
# Conditions in all cases: Homo sapiens
# COLO-829 = format: functional, cell-based
# Description: SANGER: Inhibition of human COLO-829 cell growth in a cell viability assay.
# D-263MG = format: functional, cell-based
# Description: SANGER: Inhibition of human D-263MG cell growth in a cell viability assay.
# ES7 = format: functional, cell-based;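 note: growth inhibition of cultured human ES7 cells, read out as cell viability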
# Description: SANGER: Inhibition of human ES7 cell growth in a cell viability assay.
# GCIY = format: functional, cell-based;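 note: growth inhibition of the human GCIY cell line, read out by a cell viability assay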
# Description: SANGER: Inhibition of human GCIY cell growth in a cell viability assay.
# GOTO = format: functional, cell-based;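 note: growth inhibition of GOTO cells, read out by a cell viability assay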
# Description: SANGER: Inhibition of human GOTO cell growth in a cell viability assay.
# HAL-01 = format: functional, cell-based;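 note: growth inhibition of human HAL-01 cells, read out with a cell viability assay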
# Description: SANGER: Inhibition of human HAL-01 cell growth in a cell viability assay.
# HCE-4 = format: functional, cell-based;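 note: cell viability assay measuring inhibition of growth in the human HCE-4 cell line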
# Description: SANGER: Inhibition of human HCE-4 cell growth in a cell viability assay.
# HT = format: functional, cell-based
# Description: SANGER: Inhibition of human HT cell growth in a cell viability assay.
# IST-MEL1 = format: functional, cell-based;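 note: growth inhibition of the cell line, read out with a cell viability assay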
# Description: SANGER: Inhibition of human IST-MEL1 cell growth in a cell viability assay.
# IST-SL1 = format: functional, cell-based;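 note: growth inhibition of human IST-SL1 cells, read out with a cell viability assay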
# Description: SANGER: Inhibition of human IST-SL1 cell growth in a cell viability assay.
# JVM-3 = format: functional, cell-based;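 note: growth inhibition of human JVM-3 cells, read out with a cell viability assay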
# Description: SANGER: Inhibition of human JVM-3 cell growth in a cell viability assay.
# K562 = format: functional, cell-based
# Description: SANGER: Inhibition of human K-562 cell growth in a cell viability assay.
# KG-1 = format: functional, cell-based;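 note: growth inhibition of KG-1 cells, read out by a cell viability assay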
# Description: SANGER: Inhibition of human KG-1 cell growth in a cell viability assay.
# KM-H2 = format: functional, cell-based;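 note: growth inhibition of KM-H2 cells, read out by a cell viability assay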
# Description: SANGER: Inhibition of human KM-H2 cell growth in a cell viability assay.
# KP-N-YS = format: functional, cell-based;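 note: cell viability assay measuring inhibition of cell line growth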
# Description: SANGER: Inhibition of human KP-N-YS cell growth in a cell viability assay.
# KS-1 = format: functional, cell-based;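 note: growth inhibition of KS-1 cells, read out with a cell viability assay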
# Description: SANGER: Inhibition of human KS-1 cell growth in a cell viability assay.
# KU812 cell line = format: functional, cell-based;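 note: growth inhibition of KU812 cells, read out with a cell viability assay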
# Description: SANGER: Inhibition of human KU812 cell growth in a cell viability assay.
# LB831-BLC = format: functional, cell-based;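 note: growth inhibition of LB831-BLC cells, read out with a cell viability assay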
# Description: SANGER: Inhibition of human LB831-BLC cell growth in a cell viability assay.
# LS-411N = format: functional, cell-based
# LXF-289 cell line = format: functional, cell-based
# Description: SANGER: Inhibition of human LXF-289 cell growth in a cell viability assay.
# MHH-NB-11 = format: functional, cell-based;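 note: growth inhibition of human MHH-NB-11 cells, read out by a cell viability assay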
# Description: SANGER: Inhibition of human MHH-NB-11 cell growth in a cell viability assay.
# MMAC-SF = format: functional, cell-based;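 note: growth inhibition of human MMAC-SF cells, read out with a cell viability assay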
# Description: SANGER: Inhibition of human MMAC-SF cell growth in a cell viability assay.
# MOLT-16 = format: functional, cell-based;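 note: growth inhibition of human MOLT-16 cells, read out with a cell viability assay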
# Description: SANGER: Inhibition of human MOLT-16 cell growth in a cell viability assay.
# MS-1 = format: functional, cell-based;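 note: growth inhibition of MS-1 cells, read out by cell viability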
# Description: SANGER: Inhibition of human MS-1 cell growth in a cell viability assay.
# MZ2-MEL = format: functional, cell-based;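 note: growth inhibition of MZ2-MEL cells read out with a cell viability assay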
# Description: SANGER: Inhibition of human MZ2-MEL cell growth in a cell viability assay.
# NB69 = format: functional, cell-based;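 note: growth inhibition of NB69 cells, determined by a cell viability assay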
# Description: SANGER: Inhibition of human NB69 cell growth in a cell viability assay.
# NCI-H1092 = format: functional, cell-based;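 note: cell growth inhibition measured with a cell viability assay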
# Description: SANGER: Inhibition of human NCI-H1092 cell growth in a cell viability assay.
# NCI-H1155 = format: functional, cell-based;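 note: cell growth inhibition measured by a viability assay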
# Description: SANGER: Inhibition of human NCI-H1155 cell growth in a cell viability assay.
# NCI-H209 = format: functional, cell-based;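 note: growth inhibition of human NCI-H209 cells, measured by a cell viability assay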
# Description: SANGER: Inhibition of human NCI-H209 cell growth in a cell viability assay.
# NCI-H23 = format: functional, cell-based;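 note: cell viability assay measuring growth inhibition of NCI-H23 cells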
# Description: SANGER: Inhibition of human NCI-H23 cell growth in a cell viability assay.
# NCI-H510A = format: functional, cell-based;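 note: growth inhibition of NCI-H510A cells, read out with a cell viability assay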
# Description: SANGER: Inhibition of human NCI-H510A cell growth in a cell viability assay.
# NCI-H526 = format: functional, cell-based;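 note: growth inhibition of the human NCI-H526 cell line, measured by a cell viability assay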
# Description: SANGER: Inhibition of human NCI-H526 cell growth in a cell viability assay.
# NH-12 = format: functional, cell-based;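 note: growth inhibition of NH-12 cells, read out with a cell viability assay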
# Description: SANGER: Inhibition of human NH-12 cell growth in a cell viability assay.
# NKM-1 = format: functional, cell-based;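 note: growth inhibition of NKM-1 cells, read out with a cell viability assay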
# Description: SANGER: Inhibition of human NKM-1 cell growth in a cell viability assay.
# NOS-1 = format: functional, cell-based;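 note: growth inhibition of the human NOS-1 cell line, read out with a cell viability assay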
# Description: SANGER: Inhibition of human NOS-1 cell growth in a cell viability assay.
# P30-OHK = format: functional, cell-based;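 note: growth inhibition of the P30-OHK cell line, read out with a cell viability assay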
# Description: SANGER: Inhibition of human P30-OHK cell growth in a cell viability assay.
# PSN1 = format: functional, cell-based;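 note: suppression of growth of human PSN1 cells, read out by a cell viability assay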
# Description: SANGER: Inhibition of human PSN1 cell growth in a cell viability assay.
# RPMI-8226 = format: functional, cell-based
# Description: SANGER: Inhibition of human RPMI-8226 cell growth in a cell viability assay.
# Ramos-2G6-4C10 = format: functional, cell-based;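 note: growth inhibition of the cell line, measured by a cell viability read-out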
# Description: SANGER: Inhibition of human Ramos-2G6-4C10 cell growth in a cell viability assay.
# SCC-15 = format: functional, cell-based;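 note: growth inhibition of SCC-15 cells, read out with a cell viability assay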
# Description: SANGER: Inhibition of human SCC-15 cell growth in a cell viability assay.
# SCH = format: functional, cell-based;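 note: growth inhibition of human SCH cells, read out in a cell viability assay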
# Description: SANGER: Inhibition of human SCH cell growth in a cell viability assay.
# SH-4 = format: functional, cell-based;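 note: growth inhibition of SH-4 cells, read out with a cell viability assay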
# Description: SANGER: Inhibition of human SH-4 cell growth in a cell viability assay.
# SK-MEL-2 = format: functional, cell-based;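 note: growth inhibition of human SK-MEL-2 cells measured with a cell viability assay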
# Description: SANGER: Inhibition of human SK-MEL-2 cell growth in a cell viability assay.
# SK-NEP-1 = format: functional, cell-based;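 note: growth inhibition of human SK-NEP-1 cells, read out by a cell viability assay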
# Description: SANGER: Inhibition of human SK-NEP-1 cell growth in a cell viability assay.
# SW684 = format: functional, cell-based;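 note: growth inhibition of human SW684 cells, measured by a cell viability assay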
# Description: SANGER: Inhibition of human SW684 cell growth in a cell viability assay.
# SW872 = format: functional, cell-based;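 note: growth inhibition of SW872 cells, read out by a viability assay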
# Description: SANGER: Inhibition of human SW872 cell growth in a cell viability assay.
# SW982 = format: functional, cell-based;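 note: growth inhibition of SW982 cells, read out with a cell viability assay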
# Description: SANGER: Inhibition of human SW982 cell growth in a cell viability assay.
# TE-1 = format: functional, cell-based;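 note: growth inhibition of the human TE-1 cell line, read out with a cell viability assay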
# Description: SANGER: Inhibition of human TE-1 cell growth in a cell viability assay.
# 697 = format: functional, cell-based
# Description: SANGER: Inhibition of human 697 cell growth in a cell viability assay.
# 8-MG-BA = format: functional, cell-based;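 note: growth inhibition of 8-MG-BA cells, read out with a cell viability assay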
# Description: SANGER: Inhibition of human 8-MG-BA cell growth in a cell viability assay.
# ACN = format: functional, cell-based;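 note: growth inhibition of the human ACN cell line, read out via cell viability testing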
# Description: SANGER: Inhibition of human ACN cell growth in a cell viability assay.
# BB65-RCC = format: functional, cell-based;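 note: growth inhibition of the cell line, measured with a cell viability assay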
# Description: SANGER: Inhibition of human BB65-RCC cell growth in a cell viability assay.
# BE-13 = format: functional, cell-based;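 note: growth inhibition of human BE-13 cells, measured with a cell viability assay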
# Description: SANGER: Inhibition of human BE-13 cell growth in a cell viability assay.
# BV-173 = format: functional, cell-based
# Description: SANGER: Inhibition of human BV-173 cell growth in a cell viability assay.
# TE-5 = format: functional, cell-based;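 note: inhibition of cell growth, read out by a cell viability assay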
# Description: SANGER: Inhibition of human TE-5 cell growth in a cell viability assay.
# U-87 MG = format: functional, cell-based, U-87MG ATCC;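 note: growth inhibition of the cells measured with a viability assay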
# Description: SANGER: Inhibition of human U-87-MG cell growth in a cell viability assay.
# COLO-684 = format: functional, cell-based
# Description: SANGER: Inhibition of human COLO-684 cell growth in a cell viability assay.
structure (smiles),measurement,setting,value
CC[C@@]1(O)C(=O)OCc2c1cc1n(c2=O)Cc2cc3ccccc3nc2-1 [CAMPTOTHECIN],IC50,COLO-829,11.7 nM
same,IC50,D-263MG,9.11 nM
same,IC50,ES7,0.0254 nM
same,IC50,GCIY,66.1 nM
same,IC50,GOTO,0.706 nM
same,IC50,HAL-01,2.55 nM
same,IC50,HCE-4,1.81 nM
same,IC50,HT,29.7 nM
same,IC50,IST-MEL1,3.81 nM
same,IC50,IST-SL1,34.4 nM
same,IC50,JVM-3,2.5 nM
same,IC50,K562,> 100 nM
same,IC50,KG-1,1.11 nM
same,IC50,KM-H2,55.7 nM
same,IC50,KP-N-YS,> 100 nM
same,IC50,KS-1,57.9 nM
same,IC50,KU812 cell line,8.36 nM
same,IC50,LB831-BLC,18.4 nM
same,IC50,LS-411N,58.1 nM
same,IC50,LXF-289 cell line,7.05 nM
same,IC50,MHH-NB-11,0.842 nM
same,IC50,MMAC-SF,38.4 nM
same,IC50,MOLT-16,0.732 nM
same,IC50,MS-1,2.77 nM
same,IC50,MZ2-MEL,14.1 nM
same,IC50,NB69,0.569 nM
same,IC50,NCI-H1092,43.2 nM
same,IC50,NCI-H1155,1.19 nM
same,IC50,NCI-H209,0.0484 nM
same,IC50,NCI-H23,40.7 nM
same,IC50,NCI-H510A,1.7 nM
same,IC50,NCI-H526,1.03 nM
same,IC50,NH-12,3.79 nM
same,IC50,NKM-1,0.441 nM
same,IC50,NOS-1,91.9 nM
same,IC50,P30-OHK,2.79 nM
same,IC50,PSN1,3.07 nM
same,IC50,RPMI-8226,29.5 nM
same,IC50,Ramos-2G6-4C10,10.5 nM
same,IC50,SCC-15,18.6 nM
same,IC50,SCH,> 100 nM
same,IC50,SH-4,59.8 nM
same,IC50,SK-MEL-2,54.8 nM
same,IC50,SK-NEP-1,1.23 nM
same,IC50,SW684,> 100 nM
same,IC50,SW872,24.2 nM
same,IC50,SW982,4.06 nM
same,IC50,TE-1,35.1 nM
same,IC50,697,2.03 nM
same,IC50,8-MG-BA,1.5 nM
same,IC50,ACN,85.7 nM
same,IC50,BB65-RCC,1.85 nM
same,IC50,BE-13,4.56 nM
same,IC50,BV-173,2.38 nM
same,IC50,TE-5,7.38 nM
same,IC50,U-87 MG,6.63 nM
same,IC50,COLO-684,13.8 nM
